# Laboratory results reported in US9234222B2, “Microbial strains producing sphingoid bases or derivatives thereof” (EVONIK DEGUSSA GMBH, priority 2004, dated 2016).
# Bridge positions count the residues as written; N and C are the ends. Square brackets hold non-standard residues; d marks the D form. Peptide text beside a SMILES is read from it. * marks the point of attachment. Asp(3S-OH) = N[C@H](C(=O)O)[C@H](O)C(=O)O; Thr(4-Cl) = N[C@H](C(=O)O)[C@H](O)CCl; X1 = CCCCCCCCC[C@@H](O)CC(=O)*; dDab = NCC[C@@H](N)C(=O)O; Dab = NCC[C@H](N)C(=O)O; Dhb = C/C=C(\N)C(=O)O
# System: Pichia ciferrii strains
# Assay: Minimal inhibitory concentration of SyringomycinE on YEPD agar plates
# Assay type: cell-based
# Settings: 10 μg/ml in YEPD selective plates
# Experimental: In order to isolate high sphinganine producing Pichia ciferrii strains the following procedure was followed. First, the natural sensitivity of Pichia ciferrii strains for the toxic compound SyringomycinE, produced by […] syringae (Gross D C, 1985, Regulation of syringomycin synthesis in Pseudomonas syringae pv. syringae and defined conditions for its production. J Appl Bacteriol. 58:167-174), was determined by adding different concentrations of SyringomycinE to agar plates. A stock solution of 3.5 mg SyringomycinE (obtained from J. Takemoto, Utah State University) was prepared by dissolving it in 1.0 ml 0.001 N HCl. The pH was kept below 7 for stability and stored at −20° C. The minimal inhibitory concentration (=MIC-value) for Pichia ciferrii strains was determined by using YEPD plates (per liter: Yeast Extract, 10 g; Pepton, 20 g; Glucose, 20 g; Agar, 20 g) containing various concentrations between 0.1 and 20 μg/ml syringomycinE. On each plate with the different concentrations of syringomycinE 100 μl of a freshly grown culture (OD600 nm=0.4) was plated and incubated at 30° C. for 5 days.
# Depending on the strain no colonies appeared on plates with 2 to 10 μg/ml of SyringomycinE, meaning that the MIC value lies between 2 and 10 μg/ml. […]
smiles,measurement,value
C/C=C1\NC(=O)[C@H](Cc2ccccc2)NC(=O)[C@H](CCCN=C(N)N)NC(=O)[C@@H](CCN)NC(=O)[C@H](CCN)NC(=O)[C@@H](CO)NC(=O)[C@@H](NC(=O)C[C@H](O)CCCCCCCCC)COC(=O)[C@H]([C@H](O)CCl)NC(=O)[C@H]([C@H](O)C(=O)O)NC1=O [SyringomycinE] (X1-S[dS][Dab][dDab]RF[Dhb][Asp(3S-OH)][Thr(4-Cl)]; ester 1-C),effect on standard P. ciferrii strains,lethal
